Test results reported in article PMC8617031, “Development of a BCL-xL and BCL-2 dual degrader with improved anti-leukemic activity,” (Nature Communications, 2021).
Values joined by “and” are separate entries in the source; they are usually repeats but may differ in a detail not shown here. Equal entries are not always repeated.

Experiments:
[1] = molecular target: T1, BCL-xL/PROTAC/VHL-ELOC-ELOB (VCB) ternary complex (Homo sapiens, UniProt P40337+Q07817); assay: AlphaLISA ternary complex formation, cell-free, BCL-xL; format: binding; conditions: for in vitro ternary complex formation with BCL-xL (in words): AlphaLISA, cell-free, Fig. 2c, 3e; for AlphaLISA signal, BCL-xL/PROTAC/VCB: Fig. 2c raw Alpha reads
T1 construct: pGEX-6P-1-VHL(54-213) (pDL2200) was constructed through Gibson assembly method; made in house; host or cells: bacterial culture (LB broth, IPTG induction)
Procedure, shortened: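 Cell-free AlphaLISA: 5 nM His-tagged BCL-xL or BCL-2 plus 5 nM GST-VCB incubated with fourfold serially diluted compound 30 min at room temperature. Glutathione donor and His acceptor beads (20 µg/ml each) then added for 15 and 45 min; AlphaLISA signal plotted against compound concentration.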

[2] = tested on: BCL-xL/PROTAC/VCB ternary complex (HiBit-BCL-xL, HaloTag-VHL); assay: NanoBRET intracellular ternary complex formation in 293T cells, BCL-xL; format: cell-based, human; conditions: NanoBRET, 293T cells, 6 h
Procedure, shortened: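 293T cells were transfected with HiBit-BCL-xL or HiBit-BCL-2 plus HaloTag-VHL and incubated overnight with or without HaloTag NanoBRET 618 ligand in 4% FBS Opti-MEM. Serially diluted compounds were applied for 6 h at 37 °C. mBRET ratio from donor emission (450/50 nm) and acceptor emission (610 nm longpass) after Nano-Glo substrate.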

[3] = compound 200000 nM, 2 technical replicates

T1 sequence (Q07817 1-212 limits assumed): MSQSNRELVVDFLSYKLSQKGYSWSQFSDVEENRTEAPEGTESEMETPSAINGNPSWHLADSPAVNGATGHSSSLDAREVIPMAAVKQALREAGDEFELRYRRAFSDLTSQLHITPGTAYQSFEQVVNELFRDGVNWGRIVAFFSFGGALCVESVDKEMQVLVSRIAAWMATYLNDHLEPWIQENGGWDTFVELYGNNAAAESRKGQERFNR
T1 sequence (P40337 54-213 limits assumed): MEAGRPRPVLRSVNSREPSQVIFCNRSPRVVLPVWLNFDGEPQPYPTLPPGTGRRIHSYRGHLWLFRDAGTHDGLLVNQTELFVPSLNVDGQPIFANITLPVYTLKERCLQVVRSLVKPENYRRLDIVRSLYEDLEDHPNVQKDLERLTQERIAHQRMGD
T1 sequence (Q15369 17-112 partner limits assumed): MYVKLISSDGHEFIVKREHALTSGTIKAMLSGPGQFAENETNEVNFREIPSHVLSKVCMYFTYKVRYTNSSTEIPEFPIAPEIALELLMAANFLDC
T1 sequence (Q15370 whole entry partner): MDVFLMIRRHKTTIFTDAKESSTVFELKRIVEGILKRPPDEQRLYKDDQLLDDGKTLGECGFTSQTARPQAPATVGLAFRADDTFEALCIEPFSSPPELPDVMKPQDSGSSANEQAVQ

in vitro ternary complex formation with BCL-xL (in words) [1]	AlphaLISA signal, BCL-xL/PROTAC/VCB ([1]; compound 0.191 nM)	AlphaLISA signal, BCL-xL/PROTAC/VCB ([1]; compound 0.763 nM)	AlphaLISA signal, BCL-xL/PROTAC/VCB ([1]; compound 3.052 nM)	AlphaLISA signal, BCL-xL/PROTAC/VCB ([1]; compound 12.207 nM)	AlphaLISA signal, BCL-xL/PROTAC/VCB ([1]; compound 48.828 nM)	AlphaLISA signal, BCL-xL/PROTAC/VCB ([1]; compound 195.31 nM)	AlphaLISA signal, BCL-xL/PROTAC/VCB ([1]; compound 781.25 nM)	AlphaLISA signal, BCL-xL/PROTAC/VCB ([1]; compound 3125 nM)	AlphaLISA signal, BCL-xL/PROTAC/VCB ([1]; compound 12500 nM)	AlphaLISA signal, BCL-xL/PROTAC/VCB ([1]; compound 50000 nM)	AlphaLISA signal, BCL-xL/PROTAC/VCB [1, 3]	SMILES	intracellular ternary complex formation with BCL-xL (in words) [2]
stronger ternary complexes	19077 and 19160	16314 and 16977	21818 and 20322	112726 and 99392	824374 and 896013	1441307 and 1441293	1280941 and 1272724	836346 and 758740	257313 and 288328	78225 and 86140	21117 and 20625	Cc1ncsc1-c1ccc([C@H](C)NC(=O)[C@@H]2C[C@@H](O)CN2C(=O)[C@@H](NC(=O)CCCCCCC(=O)N2CCN(CC3(C)CCC(c4ccc(Cl)cc4)=C(CN4CCN(c5ccc(C(=O)NS(=O)(=O)c6ccc(N[C@H](CCN7CCOCC7)CSc7ccccc7)c(S(=O)(=O)C(F)(F)F)c6)cc5)CC4)C3)CC2)C(C)(C)C)cc1 (some centres unmarked) [PPC8]	stronger BCL-xL/PROTAC/VHL-EloC-EloB (VCB) ternary complexes
much weaker ternary complexes	17022 and 14292	18582 and 21901	16005 and 18766	39343 and 38049	159552 and 171121	340009 and 336400	265891 and 255043	73854 and 131135	17390 and 24043	11384 and 10586	11935 and 10943	Cc1ncsc1-c1ccc([C@H](C)NC(=O)[C@@H]2C[C@@H](O)CN2C(=O)[C@@H](NC(=O)CCCCCCCC(=O)N2CCN(CC3(C)CCC(c4ccc(Cl)cc4)=C(CN4CCN(c5ccc(C(=O)NS(=O)(=O)c6ccc(N[C@H](CCN7CCOCC7)CSc7ccccc7)c(S(=O)(=O)C(F)(F)F)c6)cc5)CC4)C3)CC2)C(C)(C)C)cc1 (some centres unmarked) [PPC9]	stronger BCL-xL/PROTAC/VHL-EloC-EloB (VCB) ternary complexes
